The record followed here is patent US8513260B2, “Pyrazinylpyrazoles” (Bayer CropScience AG, priority 2009, dated 2013).

Where two headings read alike, the source gives them in different places.

The subject of series [1] is red spider mite (Tetranychus urticae). Kind of series: Tetranychus test, OP-resistant (TETRUR spray treatment). Conditions: 500 g/ha, bean leaf discs, after 6 days; for pest or weed control at 500 g/ha: Tetranychus urticae, foliar, 144 h, read-out: efficacy. The class given is in vivo. As for the experimental part:
Tetranychus Test, OP-Resistant (TETRUR Spray Treatment)
Solvent: 78.0 parts by weight of acetone • • 1.5 parts by weight of dimethylformamide
Emulsifier: 0.5 part by weight of alkylaryl polyglycol ether
To prepare an appropriate active ingredient preparation, 1 part by weight of active ingredient is mixed with the stated amounts of solvent and emulsifier, and the concentrate is diluted with emulsifier-containing water to the desired concentration. Discs of bean leaves (Phaseolus vulgaris) infested by all stages of the red spider mite (Tetranychus urticae) are sprayed with an active ingredient preparation of the desired concentration. After 6 days, the efficacy in % is determined. 100% means that all spider mites have been killed; 0% means that none of the spider mites have been killed.

A further series deals with Boophilus microplus. The series can be described thus: Boophilus microplus test (BOOPMI injection). The series is classed as in vivo. Conditions: 20 μg animal; injection into the abdomen; after 7 days, laying of fertile eggs. The method, then:
Boophilus microplus Test (BOOPMI Injection) Solvent: dimethyl sulphoxide To prepare an appropriate active ingredient formulation, 10 mg of active ingredient are mixed with 0.5 ml of solvent and the concentrate is diluted with solvent to the desired concentration. The active ingredient solution is injected into the abdomen (Boophilus microplus), and the animals are transferred into dishes and stored in a climate-controlled room. The efficacy is assessed by laying of fertile eggs. After 7 days, the efficacy in % is determined. 100% means that none of the ticks has laid any fertile eggs.

Series [2] concerns larvae of the mustard beetle (Phaedon cochleariae). Kind of series: Phaedon test (PHAECO spray treatment). The class given is in vivo. The settings on record: Chinese cabbage discs, after 7 days; for efficacy: 500 g/ha; for pest or weed control at 500 g/ha: Phaedon cochleariae, 168 h, read-out: efficacy. The method, then:
Phaedon Test ([…] Spray Treatment) Solvent: 78.0 parts by weight of acetone • • 1.5 parts by weight of dimethylformamide Emulsifier: 0.5 part by weight of alkylaryl polyglycol ether To prepare an appropriate active ingredient preparation, 1 part by weight of active ingredient is mixed with the stated amounts of solvent and emulsifier, and the concentrate is diluted with emulsifier-containing water to the desired concentration. Discs of Chinese cabbage (Brassica pekinensis) are sprayed with an active ingredient preparation of the desired concentration and, after drying, populated with larvae of the mustard beetle (Phaedon cochleariae). After 7 days, the efficacy in % is determined. 100% means that all beetle larvae have been killed; 0% means that none of the beetle larvae have been killed.

Series [3] in a line: logP by HPLC on reversed-phase columns (C 18), EEC Directive 79/831 Annex V.A8. The settings on record: for chromatographic logP: reversed-phase C18 HPLC column, read-out: log P. The class given is physicochemical. The text has this: [table] The calibration is effected with unbranched alkan-2-ones (having 3 to 16 carbon atoms) with known logP values (logP values determined on the basis of the retention times by linear interpolation between two successive alkanones).

Series [4] has as its system caterpillars of the armyworm (Spodoptera frugiperda). The series can be described thus: Spodoptera frugiperda test (SPODFR spray treatment). Conditions: maize leaf discs, after 7 days; for efficacy: 500 g/ha; for pest or weed control at 500 g/ha: Spodoptera frugiperda, foliar, 168 h, read-out: efficacy. The series is classed as in vivo. As for the experimental part:
Spodoptera frugiperda Test (SPODFR Spray Treatment) Solvent: 78.0 parts by weight of acetone • • 1.5 parts by weight of dimethylformamide Emulsifier: 0.5 part by weight of alkylaryl polyglycol ether To prepare an appropriate active ingredient preparation, 1 part by weight of active ingredient is mixed with the stated amounts of solvent and emulsifier, and the concentrate is diluted with emulsifier-containing water to the desired concentration. Discs of maize leaves (Zea mays) are sprayed with an active ingredient preparation of the desired concentration and, after drying, populated with caterpillars of the armyworm (Spodoptera frugiperda). After 7 days, the efficacy in % is determined. 100% means that all caterpillars have been killed; 0% means that none of the caterpillars have been killed.

Series [5] has as its system green peach aphid (Myzus persicae). Kind of series: Myzus test (MYZUPE spray treatment). Conditions: Chinese cabbage discs, after 6 days; for efficacy: 500 g/ha; for pest or weed control at 500 g/ha: Myzus persicae, 144 h, read-out: efficacy. The series is classed as in vivo. The method, then: Myzus Test (MYZUPE Spray Treatment) Solvent: 78 parts by weight of acetone • • 1.5 parts by weight of dimethylformamide Emulsifier: 0.5 part by weight of alkylaryl polyglycol ether To prepare an appropriate active ingredient preparation, 1 part by weight of active ingredient is mixed with the stated amounts of solvent and emulsifier, and the concentrate is diluted with emulsifier-containing water to the desired concentration. Discs of Chinese cabbage (Brassica pekinensis) infested by all stages of the green peach aphid (Myzus persicae) are sprayed with an active ingredient preparation of the desired concentration. After 6 days, the efficacy in % is determined. 100% means that all of the aphids have been destroyed; 0% means that none of the aphids have been destroyed.

[6] abbreviates: * LC-MS, acidic range pH 2.7, 0.1% aqueous formic acid and acetonitrile.
Setting [7] is: pH 2.7, * LC-MS, acidic range pH 2.7, 0.1% aqueous formic acid and acetonitrile.

With `CCC(OC)c1nn(-c2nccnc2OC)c(N)c1-c1ccc(Cl)c(Cl)c1` (stereo not drawn) [Ex. 3], the efficacy (in series [1]; with Boophilus microplus; in series [2]) was 100% each time.

For `CCCOc1nccnc1-n1nc(C(F)(F)F)c(-c2ccc(Br)cc2)c1N` [Ex. 4], the pest or weed control at 500 g/ha in series [1] was 90%; in series [2], 83%. The chromatographic logP in series [3] (pH 2.3, ** acidic range pH 2.3, 0.1% aqueous phosphoric acid and acetonitrile) worked out at 4.11.

Take `CSc1nccnc1-n1nc(C(F)(F)F)c(-c2cc(Cl)cc(C(F)(F)F)c2)c1N` [Ex. 28]: the efficacy (in series [4]; with Boophilus microplus; in series [2]) was 100% in each case. Also, the “log P” value in series [3] (setting [6]) is 4.9*.

In the case of `COc1nccnc1-n1nc(C(F)(F)F)c(-c2cc(Cl)cc(C(F)(F)F)c2)c1NCc1ccccc1` [Ex. 33], the efficacy stood at 80% in series [5], 90% in series [1] and 100% in series [2].

On to `CCOc1nccnc1-n1nc(C(F)(F)F)c(-c2cc(Cl)cc(C(F)(F)F)c2)c1N(Cc1ccccc1)Cc1ccccc1` [Ex. 34], for which the “log P” value in series [3] (setting [6]) was 7*.

Turning to `COc1nccnc1-n1nc(C(F)(F)F)c(-c2ccccn2)c1N` [Ex. 49], the chromatographic logP in series [3] (setting [7]) amounted to 2.59.

For `COc1nccnc1-n1nc(C(F)(F)F)c(-c2cncc(Br)c2)c1N` [Ex. 50], the chromatographic logP in series [3] (setting [7]) was 2.62.

Turning to `COc1nccnc1-n1nc(C(F)(F)F)c(-c2ncc(Cl)cc2Cl)c1N` [Ex. 52], in series [3] (setting [7]), the chromatographic logP is 2.94. For the same compound, in series [2], the pest or weed control at 500 g/ha is 100%.

On to `COc1nccnc1-n1nc(C(F)(F)F)c(-c2ccc(Cl)cn2)c1N` [Ex. 53], for which the chromatographic logP in series [3] (setting [7]) turned out to be 3.55.

Take `COc1nccnc1-n1nc(C(F)(F)C(F)(F)F)c(-c2ccc(Cl)cn2)c1N` [Ex. 54]: the chromatographic logP in series [3] (setting [7]) was 4.17.

Regarding `COc1nccnc1-n1nc(C(F)(F)F)c(-c2cccnc2Cl)c1N` [Ex. 57], the chromatographic logP in series [3] (setting [7]) is 2.19.

Regarding `COc1nccnc1-n1nc(C(F)(F)C(F)(F)F)c(-c2ccc(Cl)nc2)c1N` [Ex. 58], the chromatographic logP in series [3] (setting [7]) was found to be 3.14.

For `COc1nccnc1-n1nc(C(F)(F)C(F)F)c(-c2cc(Cl)cc(C(F)(F)F)c2)c1N` [Ex. 59], the efficacy turned out to be 100% in series [5], 100% in series [1], 83% in series [4] and 100% in series [2].

In the case of `COc1nccnc1-n1nc(C(F)(F)F)c(-c2cc(Br)c3c(c2)OCO3)c1N` [Ex. 74], the pest or weed control at 500 g/ha stood at 90% in series [5], 90% in series [1], 100% in series [4] and 100% in series [2]. Besides, the chromatographic logP in series [3] (setting [7]) stood at 3.18.

In the case of `COc1nccnc1-n1nc(C(C)C)c(-c2cc(Cl)c3c(c2)OCO3)c1N` [Ex. 77], the pest or weed control at 500 g/ha in series [5], in series [1], in series [4] and in series [2] was 100% in each case. In series [3] (setting [7]), the chromatographic logP was 2.96.

In the case of `COc1nccnc1-n1nc(C2CC2)c(-c2cc(Cl)c3c(c2)OCO3)c1N` [Ex. 79], the pest or weed control at 500 g/ha in series [4] and in series [2] was 100% in each case. The chromatographic logP in series [3] (setting [7]) came out at 2.79.

With `COc1nccnc1-n1nc(C(F)(F)F)c(-c2cc(Cl)c(Cl)c(Cl)c2)c1N` [Ex. 87], the pest or weed control at 500 g/ha in series [4] and in series [2] was 100% in each case. For the same compound, the chromatographic logP in series [3] (setting [7]) was found to be 4.35.

Regarding `C=CCN(CC=C)c1c(-c2cc(Cl)cc(C(F)(F)F)c2)c(C(F)(F)F)nn1-c1nccnc1OC` [Ex. 103], the efficacy in series [5] was found to be 80%.

Turning to `COc1nccnc1-n1nc(C(F)(F)F)c(-c2cc(F)c(OC)c(Cl)c2)c1N` [Ex. 124], the values for the efficacy in series [1], in series [4] and in series [2] were 90%, 100% and 100%, respectively. The “log P” value in series [3] (*** LC-MS, neutral range pH 7.8, 0.001 molar aqueous ammonium hydrogencarbonate and acetonitrile) is on record as 3.5***;.

Consider `COc1ccc(-c2c(C(F)(F)F)nn(-c3nccnc3OC)c2N)c(Br)c1OC` [Ex. 128], for which the chromatographic logP in series [3] (setting [7]) stood at 2.87.

For `COc1nccnc1-n1nc(C(F)(F)F)c(-c2ccccc2Br)c1N` [Ex. 137], the chromatographic logP in series [3] (setting [7]) was determined as 3.

Turning to `COc1nccnc1-n1nc(C(F)(F)F)c(-c2ccccc2I)c1N` [Ex. 138], the chromatographic logP in series [3] (setting [7]) amounted to 3.09.

Consider `CCOc1cc(-c2c(C(F)(F)F)nn(-c3nccnc3OC)c2N)cc(Br)c1OCC(F)(F)F` [Ex. 140], for which the efficacy in series [4] and in series [2] was 100% each time. Besides, in series [3] (setting [6]), the “log P” value is given as 4.3*.

With `COc1nccnc1-n1nc(C(F)(F)F)c(-c2c(F)ccc(Cl)c2Cl)c1N` [Ex. 142], the chromatographic logP in series [3] (setting [7]) amounted to 3.31. In addition, the pest or weed control at 500 g/ha in series [2] was 100%.

Consider `COc1nccnc1-n1nc(C(F)(F)F)c(-c2cc3c(cc2Cl)OCO3)c1N` [Ex. 143], for which the chromatographic logP in series [3] (setting [7]) was determined as 2.86.

In the case of `COc1cc(-c2c(C(F)(F)F)nn(-c3nccnc3OC)c2N)cc(I)c1OC` [Ex. 147], the chromatographic logP in series [3] (setting [7]) amounted to 3.47.

On to `COc1cc(-c2c(C(F)(F)C(F)F)nn(-c3nccnc3OC)c2N)cc(C(F)(F)F)c1OC` [Ex. 157], for which the efficacy in series [1], in series [4] and in series [2] was 100% each time.

Turning to `CCc1nn(-c2nccnc2OC)c(N)c1-c1cc(Cl)c(OC)c(OC)c1` [Ex. 161], the pest or weed control at 500 g/ha in series [4] and in series [2] was 100% in each case. Moreover, the chromatographic logP in series [3] (setting [7]) turned out to be 2.66.

`C=C(C)c1nn(-c2nccnc2OC)c(N)c1-c1cc(Cl)cc(Cl)c1` [Ex. 167]: the efficacy in series [5], in series [1] and in series [2] was 100% in each case.

In the case of `COc1nccnc1-n1nc(C(C)(C)F)c(-c2cc(Cl)cc(Cl)c2)c1N` [Ex. 168], the efficacy in series [5], in series [1], in series [4] and in series [2] was 100% throughout.

As to `COc1nccnc1-n1nc(C(F)(F)F)c(-c2cc3c(c(C(F)(F)F)c2)OCCO3)c1N` [Ex. 173], the efficacy is on record as 90% in series [1], 100% in series [4] and 100% in series [2].

For the compound `COc1cc(-c2c(C(F)(F)F)nn(-c3nccnc3OC)c2N)cc(I)c1OC` [Ex. 176], in series [3] (setting [6]), the “log P” value is recorded as 3.87*.

In the case of `CCOc1nccnc1-n1nc(CC)c(-c2cc(Br)c3c(c2)OCO3)c1N` [Ex. 177], the chromatographic logP in series [3] (setting [7]) turned out to be 3.03.

For `CCc1nn(-c2nccnc2OC)c(N)c1-c1cc(Br)c2c(c1)OCO2` [Ex. 178], the chromatographic logP in series [3] (setting [7]) worked out at 2.65.

For `COc1nccnc1-n1nc(C(F)(F)F)c(-c2cc(Cl)cc(C(F)(F)F)c2)c1N(C)C` [compound 107, 1-(3-methoxypyrazin-2-yl)-4-[3-chloro-5-(trifluoromethyl)phenyl]-3-(trifluoromethyl)-1H-pyrazole-5-dimethylamine], in series [3] (setting [6]), the “log P” value is 5.11*. The efficacy in series [2] was found to be 83%.
